Data: patent US20240316053A1, “USE OF FOLATE DERIVATIVE IN PREPARATION OF DRUG FOR TREATING CONTACT LENS DISCOMFORT AND DRY EYE” (LIANYUNGANG JINKANG HEXIN PHARMACEUTICAL CO., LTD., priority 2021, published 2024)

What was measured:
[1] = tested on: mice with chronic dry eye; experiment: Corneal fluorescein staining in mice with chronic dry eye; format: in vivo; details: 10th day after treatment
Source text: It can be seen that a suitable animal model of dry eye is very important, and it is impossible to show the true state of dry eye or contact lens discomfort only by destroying the lacrimal gland or modeling with hypertonic saline. The mouse model of dry eye constructed under specific environmental conditions is closest to the real situation. 120 female BALB/c mice aged 8-12 weeks were placed in an isolated and sealed cage with an opening on the top. Air dried through anhydrous CaSO4 was pumped into the cage by an air pump, where the air humidity RH=19.5%±5%, the flow rate was 15 L/min, and the temperature was 21-23° C. The mice in the dry and windy environment were taken out on the 5th, 15th and 30th day respectively. The production of tears was measured by phenol red thread test, and compared with that of the mice raised in standard cages in normal environment. Meanwhile, the cornea of the mice were stained with fluorescein, and the punctate staining was recorded in the cornea.
(§1) The experiment was divided into 3 groups. 20 mice with chronic dry eye in Example 2 were divided into a 5-methylterahydrofolic acid group (group A, n=10), and an arginine group (group B, n=10). 4 normal mice were taken as the control group. Each eye of the mice in group A was dripped with 5 μL of 5-methylterahydrofolic acid eye drop every day, each eye of the mice in group B was dripped with 5 μL of 0.5% arginine eye drop every day, and each eye of the mice in group C was dripped with 5 μL of a phosphate buffer every day. Tears were collected on the 3rd, 5th, 7th and 10th day after treatment, and the secretion of tears was detected. On the 10th day after treatment, the cornea of the mice in each group were stained with fluorescein.
The experiment was divided into 4 groups. […] Tears were collected on the 3rd, 5th, 7th and 10th day after treatment, and the secretion of tears was detected. […]

[2] = tested on: symptomatic contact lens wearers; experiment: Follow-up of degree of discomfort of wearing contact lenses; format: in vivo, human; details: group A (n=4), oral 5 mg calcium salt of 6S-5-methylterahydrofolic acid/tablet every day, contact lenses worn after 3 days
Method: A total of 10 adults suffering from contact lens discomfort were included in the study. Among them, 8 felt uncomfortable when wearing contact lenses, and 2 were asymptomatic contact lens wearers. The contact lenses worn by the participants were all silicone hydrogel-based contact lenses. All the participants were in good health. The symptoms and severity of eye discomfort were evaluated by the ocular surface disease index (OSDI), and whether there were symptoms such as inflammation in the eyes was checked by an optometrist.
(§2) The symptomatic contact lens wearers were divided into 2 groups, that is, group A (n=4) and group B (n=4). The asymptomatic contact lens wearers were assigned to group C The participants in each group didn't wear contact lenses for 24 hours, and then the tears were collected. Dietary supplements containing 5 mg calcium salt of 6S-5-methylterahydrofolic acid/tablet were orally taken by the participants in group A every day. After 3 days, the participants in each group began to wear contact lenses, and the tears were collected after 6 hrs. The contents of IL-2, IL-6, IL-17, and TNF-α were detected (ELISA method). The participants in each group were followed up to determine the degree of discomfort of wearing contact lenses.

[3] = tested on: MMP-2; experiment: Semi-quantitative RT-PCR in ipsilateral trigeminal ganglion of mice with chronic dry eye; format: in vivo; details: Example 3, 0.5% eye drop, FIG. 7
Method: as §1
(§3) The ipsilateral trigeminal ganglion and trigeminal trunk of the eye of the mice were dissected quickly on ice, immediately frozen with liquid nitrogen, and stored at −80° C. RNA was extracted from ipsilateral trigeminal ganglion and trigeminal trunk by using NucleoSpin RNA purification II kit (NucleoSpin RNAS, Germany), and PCR amplification was carried out with mouse-specific cDNAs for matrix metalloproteinases MMP-9, MMP-2, and TNF-α. For each primer, the reaction was stopped after 24, 28, 32, 36, or 40 cycles, so as to ensure that the PCR products were within the linear range of the amplification curve, and semi-quantitative RT-PCR for the expression of related genes was realized.

[4] = tested on: TNF-α; experiment: as above; format: in vivo; details: Example 3, 0.5% eye drop, FIG. 7
Method: as §1, §3

[5] = tested on: MMP-9; experiment: as above; format: in vivo; details: Example 3, 0.5% eye drop, FIG. 7
Method: as §1, §3

[6] = tested on: IL-17; experiment: Inflammatory factors on ocular surface of mice with chronic dry eye (ELISA); format: in vivo; details: Example 3, 0.5% eye drop, cornea, conjunctiva and draining lymph node, FIG. 6
Method: as §1
After treatment, the animals were euthanized, and the eye tissues such as cornea, lacrimal gland and meibomian gland were taken out and washed in PBS. The cornea, conjunctiva and draining lymph node were collected and stored in cold sterile PBS at −80° C. The samples were homogenized and centrifuged on ice. The levels of […], IL-17 and IL-6 in the supernatant were determined by ELISA kit (Raybiotech).

[7] = tested on: IL-17; experiment: IL-17 content in tears of contact lens wearers (ELISA); format: in vivo, human; details: symptomatic wearers, oral 5 mg/tablet daily, tears collected after 6 hrs of lens wear, FIG. 1
Method: as §2

[8] = Stability in water; format: physicochemical
[9] = Example 3, 0.5% eye drop, 5 μL per eye every day, FIG. 5

SMILES	corneal injury (fluorescein staining) [1, 9]	participants saying that the contact lens discomfort almost disappears [2]	participants thinking that the effect is not significant [2]	MMP-2 gene expression in trigeminal nerve [3]	TNF-α gene expression in trigeminal nerve [4]	MMP-9 gene expression in trigeminal nerve [5]	IL-17 inflammatory factor on ocular surface [6]	level of IL-17 in tears [7]	corneal injury (fluorescein staining) ([1]; Example 4, eye drops, FIG. 9)	stability in water [8]
CN1c2c(nc(N)[nH]c2=O)NCC1CNc1ccc(C(=O)N[C@@H](CCC(=O)O)C(=O)O)cc1 (some centres unmarked) [5-methylterahydrofolic acid]	can improve the corneal injury with a significant difference from the baseline state	3 participants	1 case	can significantly inhibit the MMP-2 gene expression	a certain inhibitory effect on TNF-α	not on MMP-9 significantly	can significantly reduce IL-17 inflammatory factor	can reduce the level of IL-17 in tears		
CN1c2c(nc(N)[nH]c2=O)NC[C@@H]1CNc1ccc(C(=O)N[C@@H](CCC(=O)O)C(=O)O)cc1.N=C(N)NCCC[C@H](N)C(=O)O [arginine 5-methylterahydrofolate, arginine 6S-5-methylterahydrofolate]									can improve the corneal injury, with a significant difference from the baseline state	very poor
N=C(N)NCCC[C@H](N)C(=O)O [arginine, reference compound]	can not significantly improve the ocular surface damage									
